Laboratory results reported in patent US9375010B2 (priority 2013, dated 2016).

Assays:
Septoria tritici = experiment: In vivo preventive test on Septoria tritici (leaf spot on wheat); conditions: 500 ppm active ingredient, preventive spray on young wheat plants, evaluated 24 days after inoculation
Method: The tested active ingredients are prepared by homogenization in a mixture of acetone/Dimethyl sulfoxide/tween®, and then diluted with water to obtain the desired active material concentration.
The young plants of wheat are treated by spraying the active ingredient prepared as described above. Control plants are treated only with an aqueous solution of acetone/Dimethyl sulfoxide/tween®.
After 24 hours, the plants are contaminated by spraying the leaves with an aqueous suspension of Septoria tritici spores. The contaminated wheat plants are incubated for 72 hours at 18° C. and at 100% relative humidity and then for 21 days at 20° C. and at 90% relative humidity.
The test is evaluated 24 days after the inoculation. 0% means an efficacy which corresponds to that of the control plants while an efficacy of 100% means that no disease is observed.

[1] = log P by HPLC on reversed phase columns (EEC directive 79/831 Annex V.A8); type: physicochemical; conditions: method [a]: LC-MS at pH 2.7, 0.1% formic acid in water / acetonitrile gradient, Table 1 compounds; for chromatographic logP: reversed phase HPLC column
Method: Calibration was done with not branched alkan2-ones (with 3 to 16 carbon atoms) with known log P-values (measurement of log P values using retention times with linear interpolation between successive alkanones). lambda-maX-values were determined using UV-spectra from 200 nm to 400 nm and the peak values of the chromatographic signals.

Phytophthora infestans = type: in vivo; conditions: 500 ppm active ingredient, preventive spray on young tomato plants, evaluated 5 days after inoculation
Plasmopara viticola = experiment: Plasmopara test (grapevines)/preventive; type: in vivo; conditions: 10 ppm active ingredient, preventive spray on young grapevine plants, evaluated 6 days after inoculation
Method: To produce a suitable preparation of active compound, 1 part by weight of active compound is mixed with the stated amounts of solvent and emulsifier, and the concentrate is diluted with water to the desired concentration.
To test for preventive activity, young plants are sprayed with the preparation of active compound at the stated rate of application. After the spray coating has dried on, the plants are inoculated with an aqueous spore suspension of Plasmopara viticola and then remain for 1 day in an incubation cabinet at approximately 20° C. and a relative atmospheric humidity of 100%. The plant is subsequently placed for 4 days in a greenhouse at approximately 21° C. and a relative atmospheric humidity of approximately 90%. The plants are then misted and placed for 1 day in an incubation cabinet.
The test is evaluated 6 days after the inoculation. 0% means an efficacy which corresponds to that of the untreated control, while an efficacy of 100% means that no disease is observed.

Row | SMILES | % efficacy (Septoria tritici) [%] | LogP [1] | % efficacy (Phytophthora infestans) [%] | chromatographic logP [1] | % efficacy (Plasmopara viticola) [%]
1 | Cn1oc(=O)nc1C(=NOCc1csc(C=CC2CCCCC2)n1)c1ccccc1 [Example 22] | 71 | 4.64^[a] | 95 |  | 
2 | CC(=NO)Nc1cccc(CO/N=C(/c2ccccc2)c2noc(=O)n2C)n1 [Example 2, N′-hydroxy-N-{6-[({[(Z)-(4-methyl-5-oxo-4,5-dihydro-1,2,4-oxadiazol-3-yl)(phenyl)methylene]amino}oxy)methyl]pyridin-2-yl}ethanimidamide] | 71 |  | 100 | 1.86 | 
3 | Cn1c(C(=NOCc2cccc(C=CC3CC3)n2)c2ccccc2)noc1=O [Example 21] |  | 3.48^[a] |  |  | 
4 | CC(=NOCc1ccccc1)Nc1cccc(CO/N=C(/c2ccccc2)c2nc(=O)on2C)n1 [Example 8] |  | 3.09^[a] | 100 |  | 92
5 | Cn1oc(=O)nc1/C(=N\OCc1csc(C#CC2CCCCC2)n1)c1ccccc1 [Example 14] |  | 4.44^[a] |  |  | 
6 | Cn1c(C(=NOCc2csc(C#CC3CC3)n2)c2ccccc2)noc1=O [Example 17] |  | 3.76^[a] | 99 |  | 
7 | Cn1oc(=O)nc1/C(=N\OCc1cccc(C#CC2CC2)n1)c1ccccc1 [Example 6] |  | 3.02^[a] |  |  | 
8 | Cn1c(C(=NOCc2csc(C#CCc3ccccc3)n2)c2ccccc2)noc1=O [Example 19] | 79 | 4.37^[a] | 90 |  | 
9 | Cn1c(C(=NOCc2cccc(C=Cc3ccccc3)n2)c2ccccc2)noc1=O [Example 23] | 97 | 4.37^[a] | 92 |  | 
10 | Cn1oc(=O)nc1C(=NOCc1csc(C=CCc2ccccc2)n1)c1ccccc1 [Example 20] |  | 3.85^[a] |  |  | 
11 | CCCCON=C(C)Nc1cccc(CO/N=C(/c2ccccc2)c2nc(=O)on2C)n1 [Example 5] |  | 3.35^[a] |  |  | 
12 | CC(=NO)Nc1cccc(CO/N=C(/c2ccccc2)c2nc(=O)on2C)n1 [Example 1] |  | 1.29^[a] | 99 |  | 
13 | Cn1oc(=O)nc1/C(=N\OCc1cccc(C#Cc2ccccc2)n1)c1ccccc1 [Example 4, 2-methyl-3-[(Z)-phenyl({[6-(phenylethynyl)pyridin-2-yl]methoxy}imino)methyl]-1,2,4-oxadiazol-5(2H)-one] |  |  | 98 | 3.63 | 
14 | CC(=NOCc1ccccc1)Nc1cccc(CO/N=C(/c2ccccc2)c2noc(=O)n2C)n1 [Example 9] |  | 3.73^[a] | 100 |  | 
15 | Cn1c(/C(=N\OCc2cccc(C#CC3CC3)n2)c2ccccc2)noc1=O [Example 13] |  | 3.65^[a] |  |  | 
16 | Cn1oc(=O)nc1C(=NOCc1csc(C#CCc2ccccc2)n1)c1ccccc1 [Example 18] |  | 3.74^[a] | 98 |  | 
17 | CC(=NOCC1CC1)Nc1cccc(CO/N=C(/c2ccccc2)c2noc(=O)n2C)n1 [Example 3, N′-(cyclopropylmethoxy)-N-{6-[({[(Z)-(4-methyl-5-oxo-4,5-dihydro-1,2,4-oxadiazol-3-yl)(phenyl)methylene]amino}oxy)methyl]pyridin-2-yl}ethanimidamide] |  |  | 99 | 3.39 | 
18 | CCCCC#Cc1cccc(CO/N=C(/c2ccccc2)c2nc(=O)on2C)n1 [Example 10] |  | 3.81^[a] | 100 |  | 96
19 | Cn1c(/C(=N\OCc2csc(C#CC3CCCCC3)n2)c2ccccc2)noc1=O [Example 16] |  | 5.08^[a] | 78 |  | 
20 | Cn1oc(=O)nc1/C(=N\OCc1cccc(C#CC(C)(C)C)n1)c1ccccc1 [Example 11] |  | 3.72^[a] | 100 |  | 100
21 | CCCCON=C(C)Nc1cccc(CO/N=C(/c2ccccc2)c2noc(=O)n2C)n1 [Example 7] |  | 3.69^[a] | 100 |  | 
22 | Cn1oc(=O)nc1/C(=N\OCc1csc(C#CC2CC2)n1)c1ccccc1 [Example 12, 3-[(Z)-({[2-(cyclopropylethynyl)-1,3-thiazol-4-yl]methoxy}imino)(phenyl)methyl]-2-methyl-1,2,4-oxadiazol-5(2H)-one] |  |  | 100 | 3.13 | 73
23 | Cn1c(/C(=N\OCc2cccc(C#Cc3ccccc3)n2)c2ccccc2)noc1=O [Example 15] |  | 4.26^[a] | 80 |  | 
